Experimental data reported in US20240239788A1, “SMALL MOLECULE INHIBITORS OF KRAS G12D MUTANT” (Merck Sharp & Dohme LLC, priority 2021, published 2024).
Like-named read-outs stand apart in the source and are kept apart here.

Experiments:
[1] = tested on: AsPC-1 cells containing homozygous KRAS-G12D activating mutation; test: Cellular phospho-ERK assay (Examples 1a-106); format: cell-based; details: AsPC-1 cells, 2 hours, ratio of p-Erk vs total Erk, read-out: IC50 (nM) pERK (Cell)
Source text: 5% CO? overnight. […] Assay plates were read on a EnVision Multimode Plate Reader (PerkinElmer) and the ratio of p-Erk vs total Erk in each well was used as the final readout.

[2] = biological target: KRAS G12D / Ras binding domain of C-RAF (Homo sapiens (Human), UniProt P01116, G12D); test: RAS:RAF-RBD binding assay (cRaf), TR-FRET; details: biotinylated KRAS G12D, GST-C-RAF RBD
[3] = biological target: KRAS protein containing G12D mutation (Homo sapiens (Human), UniProt P01116, G12D); test: SOS-catalyzed nucleotide exchange assay (GNE), TR-FRET; format: biochemical; details: biotinylated KRAS G12D, SOS and GTP, 60-minute incubation
Method: Compounds are added to this complex and then after a 60-minute incubation time the mixture is treated with SOS and unlabeled GTP. Small molecule inhibitors stabilize the Bodipy-GDP complex whereas the untreated protein rapidly exchanges Bodipy-GDP for unlabeled GTP resulting in reduced TR-FRET signal.
This solution is referred to as biotinylated KRAS G12D stock solution.

Sequence of KRAS G12D / Ras binding domain of C-RAF (P01116 other isoform, or with tags, fused parts or gaps G12D (already in the parent)): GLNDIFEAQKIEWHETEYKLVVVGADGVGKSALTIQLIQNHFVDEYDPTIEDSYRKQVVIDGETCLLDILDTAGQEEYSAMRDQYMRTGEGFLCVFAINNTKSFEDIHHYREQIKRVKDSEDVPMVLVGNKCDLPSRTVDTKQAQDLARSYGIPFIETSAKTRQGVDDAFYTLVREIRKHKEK
Sequence of KRAS protein containing G12D mutation (P01116 other isoform, or with tags, fused parts or gaps G12D (already in the parent)): as above

IC50 ([2]; read-out: IC50 (nM) (cRaf)) | Structure (SMILES) | IC50 [1] | IC50 [3] | IC50 ([2]; IC50 (nM) (cRaf)) | IC50 ([1]; Homo sapiens, ASPC1, 2 h)
4240 nM | CN(C)C[C@]1(COc2nc(N3CC4CCC(C3)N4)c3cc(Cl)c(-c4cc(O)cc5ccccc45)c(F)c3n2)CC1(F)F (atropisomer, axis not shown) [Example 11a, 4-(4-(3.8-diazabicyclo[3.2.1]octan-3-yl)-6-chloro-2-(((S)-1-((dimethylamino)methyl)-2,2-difluorocyclopropyl)methoxy)-8-fluoroquinazolin-7-yl)naphthalen-2-ol] | 2080 nM | 24.1 nM | – | –
7240 nM | CN(C)C[C@]1(COc2nc(N3CC4CCC(C3)N4)c3cc(Cl)c(-c4cc(O)cc5ccccc45)c(F)c3n2)CC1(F)F (atropisomer, axis not shown) [Example 11b, 4-(4-(3.8-diazabicyclo[3.2.1]octan-3-yl)-6-chloro-2-(((S)-1-((dimethylamino)methyl)-2,2-difluorocyclopropyl)methoxy)-8-fluoroquinazolin-7-yl)naphthalen-2-ol] | 6260 nM | 131 nM | – | –
– | CN(C)C[C@@]1(COc2nc(N3C[C@H]4CC[C@@](C)(C3)N4)c3cc(Cl)c(-c4c(F)cc(F)c5ccc(N)nc45)c(F)c3n2)CC1(F)F (single isomer, unassigned) [92b] | 5320 nM | 236 nM | 9210 nM | –
– | C#Cc1cccc2cc(O)cc(-c3c(F)cc4c(N5C[C@H]6CC[C@@](C)(C5)N6)nc(OCC5(CN6CC[C@@H](F)C6)CC5)nc4c3F)c12 (single isomer, unassigned) [103a] | 3.76 nM | 1.05 nM | 26.2 nM | –
– | Cc1c(Cl)cc2[nH]nc(C)c2c1-c1c(F)cc2c(N3C[C@H]4CC[C@@](C)(C3)N4)nc(OCC3(CN(C)C)CC3(F)F)nc2c1F (single isomer, unassigned) [Ex 68] | – | 39.9 nM | 3300 nM | 2380 nM
– | Cc1cc2[nH]ncc2c(-c2c(F)cc3c(N4C[C@H]5CC[C@@](C)(C4)N5)nc(OC[C@]4(CN(C)C)CC4(F)F)nc3c2F)c1C(F)(F)F (single isomer, unassigned) [Ex 76a] | 593 nM | 12 nM | 1810 nM | –
– | Cc1cc2[nH]ncc2c(-c2c(F)cc3c(N4C[C@H]5CC[C@@](C)(C4)N5)nc(OCC4(CN5CC[C@@H](F)C5)CC4)nc3c2F)c1C(F)(F)F (single isomer, unassigned) [Ex 80a] | 737 nM | 31.8 nM | 4050 nM | –
– | Cc1cc2[nH]ncc2c(C2Cc3nc(OC[C@]4(CN(C)C)CC4(F)F)nc(N4C[C@H]5CC[C@@](C)(C4)N5)c3C(=O)O2)c1C(F)(F)F (single isomer, unassigned) [Ex. 96b] | 657 nM | 3.31 nM | 637 nM | –
– | Oc1cc(-c2c(F)cc3c(N4CC5CC(O)C(C4)N5)nc(OCC4(CN5CCOCC5)CC4)nc3c2F)c2ccccc2c1 (single isomer, unassigned) [Example 16] | – | 30.2 nM | 871 nM | 5760 nM
– | Oc1cc(-c2c(F)cc3c(N4CC5CC(O)C(C4)N5)nc(OCC4(CN5CCOCC5)CC4)nc3c2F)c2ccccc2c1 (single isomer, unassigned) [Example 17] | 7430 nM | 52.1 nM | 3260 nM | –
– | CN(C)CC1(COc2nc(N3C[C@H]4C[C@@H](O)[C@@H](C3)N4)c3cc(Cl)c(-c4cc(O)cc5ccccc45)c(F)c3n2)CC1 (single isomer, unassigned) [Example 18a] | 20600 nM | 8.97 nM | 293 nM | –
– | CN(C)CC1(COc2nc(N3C[C@H]4C[C@@H](O)[C@@H](C3)N4)c3cc(Cl)c(-c4cc(O)cc5ccccc45)c(F)c3n2)CC1 (single isomer, unassigned) [Example 18b] | 50800 nM | 77.3 nM | 2680 nM | –
– | CN(C)CC1(COc2nc(N3CC4CC(O)C(C3)N4)c3cc(Cl)c(-c4cc(O)cc5ccccc45)c(F)c3n2)CC1 (single isomer, unassigned) [Example 22b, 3-(6-chloro-2-((1-((dimethylamino)meth-yl)cyclo-propyl)methoxy)-8-fluoro-7-(3-hydroxy-naphthalen-1-yl)quinazolin-4-yl)-3,8-diazabicyclo[3.2.1]oc-tan-6-ol] | 38300 nM | 78.9 nM | 8450 nM | –
– | CN(C)CC1(COc2nc(N3C[C@@]4(C)CC[C@H]3CN4)c3cc(Cl)c(-c4cc(O)cc5ccccc45)c(F)c3n2)CC1 (single isomer, unassigned) [Example 38a] | 1280 nM | 45.2 nM | 617 nM | –
– | CN(C)CC1(COc2nc(N3C[C@@H]4C[C@H](O)C(C)(C3)N4)c3cc(Cl)c(-c4cc(O)cc5ccccc45)c(F)c3n2)CC1 (stereo in doubt) [Example 41, 3-(6-chloro-2-((1-((dimethylamino)methyl)cyclopropyl)methoxy)-8-fluoro-7-(3-hydroxynaphthalen-1-yl)quinazolin-4-yl)-5-methyl-3,8-diazabicyclo[3.2.1]octan-6-ol] | – | 20.3 nM | 1270 nM | 2840 nM
– | CN(C)CC1(COc2nc(N3C[C@H]4NC(C)(C[C@H]4O)C3)c3cc(Cl)c(-c4cc(O)cc5ccccc45)c(F)c3n2)CC1 (stereo in doubt) [Example 42, 3-(6-chloro-2-((1-((dimethylamino)methyl)cyclopropyl)methoxy)-8-fluoro-7-(3-hydroxynaphthalen-1-yl)quinazolin-4-yl)-1-methyl-3,8-diazabicyclo [3.2.1]octan-6-ol] | – | 17.5 nM | 20400 nM | 8460 nM
– | CN(C)CC1(COc2nc(N3CC4C[C@@H](O)[C@@](C)(C3)N4)c3cc(Cl)c(-c4cc(O)cc5ccccc45)c(F)c3n2)CC1 (stereo in doubt) [Example 43, 3-(6-chloro-2-((1-((dimethylamino)methyl)cyclopropyl)methoxy)-8-fluoro-7-(3-hydroxynaphthalen-1-yl)quinazolin-4-yl)-5-methyl-3,8-diazabicyclo [3.2.1]octan-6-ol] | – | 74.3 nM | 2200 nM | 12600 nM
– | CN(C)C[C@@]1(COc2nc(N3C[C@H]4CC[C@@](C)(C3)N4)c3cc(F)c(-c4cc(O)cc5ccccc45)c(F)c3n2)CC1(F)F [Ex 69, 4-(2-(((R)-1-((dimethylamino)methyl)-2,2-difluorocyclopropyl)methoxy)-6,8-difluoro-4-((1S,5R)-1-methyl-3,8-diazabicyclo[3.2.1]octan-3-yl)quinazolin-7-yl)naphthalen-2-ol] | – | 1.76 nM | 194 nM | 275 nM
– | CN1C[C@H](F)C[C@H]1COc1nc(N2C[C@H]3CC[C@@](C)(C2)N3)c2cc(F)c(-c3cc(O)cc4ccccc34)c(F)c2n1 [Ex 70, 4-(6,8-difluoro-2-(((2S,4R)-4-fluoro-1-methylpyrrolidin-2-yl)methoxy)-4-((1S,5R)-1-methyl-3,8-diazabicyclo[3.2.1]octan-3-yl)quinazolin-7-yl)naphthalen-2-ol] | – | 43.5 nM | 5390 nM | 2330 nM
– | Cc1cc2[nH]ncc2c(-c2c(F)cc3c(N4CC5CCC(C4)N5)nc(OCC4(CN5CCOCC5)CC4)nc3c2F)c1C(F)(F)F [Ex 72, 4-((1-(((4-(3,8-diazabicyclo[3.2.1]octan-3-yl)-6,8-difluoro-7-(6-methyl-5-(trifluoromethyl)-1H-indazol-4-yl)quinazolin-2-yl)oxy)methyl)cyclopropyl)methyl)morpholine] | – | 30.8 nM | 7440 nM | 2500 nM
– | Cc1cc2[nH]nc(C)c2c(-c2c(F)cc3c(N4C[C@H]5CC[C@@](C)(C4)N5)nc(OC[C@]4(CN(C)C)CC4(F)F)nc3c2F)c1Cl [Ex 79, 1-((1R)-1-(((7-(5-chloro-3,6-dimethyl-1H-indazol-4-yl)-6,8-difluoro-4-((1S,5R)-1-methyl-3,8-diazabicyclo[3.2.1]octan-3-yl)quinazolin-2-yl)oxy)methyl)-2,2-difluorocyclopropyl)-N,N-dimethylmethanamine] | – | 72.5 nM | 4410 nM | 1930 nM
– | C[C@]12CC[C@H](CN(c3nc(OCC4(CN5CC[C@@H](F)C5)CC4)nc4c(F)c(-c5cc(O)cc6ccccc56)c(F)cc34)C1)N2 [Ex 81, 4-(6,8-difluoro-2-((1-(((R)-3-fluoropyrrolidin-1-yl)methyl)cyclopropyl)methoxy)-4-((1S,5R)-1-methyl-3,8-diazabicyclo[3.2.1]octan-3-yl)quinazolin-7-yl)naphthalen-2-ol] | – | 16.5 nM | 1980 nM | 467 nM
– | Cc1cc2[nH]ncc2c(-c2c(F)cc3c(N4C[C@H]5CC[C@@](C)(C4)N5)nc(OC[C@]4(CN(C)C)CC4(F)F)nc3c2F)c1C [Ex 82, 1-((1R)-1-(((7-(5,6-dimethyl-1H-indazol-4-yl)-6,8-difluoro-4-((1S,5R)-1-methyl-3,8-diazabicyclo[3.2.1]octan-3-yl)quinazolin-2-yl)oxy)methyl)-2,2-difluorocyclopropyl)-N,N-dimethylmethanamine] | – | 89.3 nM | 14800 nM | 2200 nM

Structure (SMILES) | IC50 ([2]; read-out: IC50 (nM) (cRaf)) | IC50 [1] | IC50 [3] | IC50 ([2]; IC50 (nM) (cRaf)) | IC50 ([1]; Homo sapiens, ASPC1, 2 h)
Cc1cc2[nH]ncc2c(C2Cc3nc(OCC4(CN5CC[C@@H](F)C5)CC4)nc(N4C[C@H]5CC[C@@](C)(C4)N5)c3C(=O)N2)c1C(F)(F)F (single isomer, unassigned) [Ex. 98a] | 34200 nM | 7270 nM | 380 nM | – | –
